Measurements as given in patent US20210318306A1, “Compositions for and Methods of Neutralizing Lipopolysaccharide Toxicity and Methods of Identifying the Same” (priority 2020, published 2021).
“And” between values parts separate entries of the source, which are not always exact repeats. Equal entries are not always repeated. “Also recorded” adds a separate entry of the source.

Columns and labels:
Type in all cases: cell-based, human
HEK-Blue hTLR4 cells [1] = assay: E. coli LPS- and P. gingivalis LPS-induced IL-8 by HEK-Blue hTLR4 cells (Example 3)
Procedure: (§1) Cells were grown to 70-80% confluent in a 96 well plate. 100 uL of a test sample was added to a well. Cells with test sample were incubated overnight. Media was collected from each well and transferred to a corresponding well in a 96-well plate. Assays to measure proinflammatory cytokines including IL-8 secretion were performed for each well.
(§2) Inflammation markers in supernatants collected from HEK-Blue cells co-incubated with Zinc and Zinc+LPS were quantified using Luminex Magpix instrument (MAGPIX-XPON42) and human 5-plex cytokine/chemokine Magnetic bead panel (Millipore HCYTOMAG-60K). The human 5-plex cytokine/chemokine Magnetic bead panel quantifies TNF-α, IL-6, IL-8, IL-1β and GM-CSF.
Experiments were conducted to identify compositions that inhibit E. coli LPS-induced IL-8 and P. gingivalis LPS-induced IL-8 by HEK-Blue hTLR4 cells. HEK-TLR4 cells in 96 well plates were contacted with 100 μl samples. IL-8 was detected as described above.

HEK-Blue hTLR4 cells [2] = assay: IL-8 in HEK-Blue hTLR4 cell supernatants with standard P.g. LPS and simple solutions at 1 mM vs 10 mM total zinc (Example 4)
Procedure: (§3) HEK-Blue hTLR4 cells (Invivogen, cat #hkb-htlr4) were cultured in a DMEM culture medium supplemented with 10% FBS and 1% penstrep at 37° C. with 5% CO2. LPS from Porphyromonas gingivalis (P.g. LPS; Invivogen, cat #tlrl-pglps and cat #tlrl-ppglps) activates TLR4 receptor and downstream inflammation in HEK-Blue hTLR4 cells. P.g. LPS is co-incubated with HEK-Blue hTLR4 cells in the absence or presence of the simple solutions. Standard and ultrapure P.g. LPS were both used due to ultrapure being a specific ligand for the TLR4 receptor while standard LPS is a ligand for both TLR2 and TLR4.
(§4) The simple solutions a) Zinc Oxide (ZnO), b) Zinc Citrate (ZnCitrate), c) Zinc Oxide+Zinc Citrate (Dual Zinc; DZ), d) Dual Zinc+Arginine (DZA, zinc oxide, zinc citrate and arginine), and e) L-Arginine (Arg) were diluted at different concentrations with culture medium.
1) experiments using 1 mM vs 10 mM total zinc; and
(§5) HEK-Blue hTLR4 cells were plated in 96-well plates and grown until confluent at 37° C. and 5% CO2 in HEK-blue selection media (DMEM with 10% FBS, 1% penicillin-streptomycin, and antibiotics for HEK-blue selection (Invivogen, cat #hb-sel)). Cells were co-incubated overnight with varying concentrations of different zinc actives as well as arginine and stimulated with either 0.1 μg/mL standard P. gingivalis LPS or 1 μg/mL ultrapure P. gingivalis LPS. Cell supernatants were collected for human inflammation cytokine panels using Multiplex and ELISA analysis.
(§6) Multiplex analysis was performed using the MILLIPLEX MAP Human Cytokine/Chemokine Magnetic Bead Panel—Immunology Multiplex Assay for IL-1, IL-6, IL-8, TNFα, and GM-CSF (Millipore Sigma, cat #HCYTOMAG-60K).
Testing was performed using total zinc concentrations to normalize the amount the zinc applied in the cell culture medium during co-incubation. Two concentrations of total zinc ion are based on the potential amount of zinc retained on the mouth soft tissue surface.

HEK-TLR4 cells = assay: P. gingivalis LPS-induced cytokine secretion by HEK-TLR4 cells, Luminex 5-plex magnetic bead panel (Example 2)
Procedure: Commercially available HEK-Blue TLR4 cells (Invitrogen) are recombinant HEK 293 cells that have been transformed with DNA that encodes TLR4 that is expressed and present on the cell surface. HEK-Blue TLR4 cells are grown ion culture and used can be used in experimental assays to identify test compositions that modulate inflammation pathways stimulated by TLR4-LPS interaction.
Initial for LPS and zinc-containing starting solutions were made as follows. An LPS starting solution was prepared as follows: a […] solution of LPS was prepared using 2 μl of 1 mg/ml LPS and 10 ml media. Multiple zinc starting solutions were each prepared using media as diluent: a) 20 mM zinc oxide, b) 2 mM zinc oxide, c) 20 mM zinc citrate, d) 2 mM zinc citrate, e) 20 mM of a composition containing a 2:1 mixture of zinc oxide and zinc citrate and f) 2 mM of a composition containing a 2:1 mixture of zinc oxide and zinc citrate. The starting solutions were used to prepare various test samples.
In some embodiments, control assays include “Untreated”, in which eight Zinc test samples without LPS were made: […], 10 mM zinc oxide+zinc citrate, 1 mM zinc oxide+zinc citrate, 10 mM zinc oxide+zinc citrate+arginine and 1 mM zinc oxide+zinc citrate+arginine, The test samples without LPS were prepared by diluting the zinc starting solutions with equal parts media. Eight test samples with LPS were made: […], […], […], […], 10 mM zinc oxide+zinc citrate LPS, 1 mM zinc oxide+zinc citrate LPS, 10 mM zinc oxide+zinc citrate+arginine LPS and 1 mM zinc oxide+zinc citrate+arginine LPS. The test samples with LPS were prepared by diluting the zinc starting solutions with equal parts LPS starting solution.
as §1, §2
The Luminex Kit Procedure outlined in the instruction manual for each separate Luminex kit was performed on the supernatants collected from the HEK-Blue cells co-incubated with Zinc test solutions without LPS and Zinc test solutions plus LPS. Quality controls in range for the specified analytes were performed to ensure levels were within the acceptable range.
To run the Luminex Test, all necessary calibration and verification procedures as outlined by the MagPix and xPonent softwares were completed and the appropriate protocol for the assay was selected. The standards were verified to be correct and complete the plate layout of samples was verified. […] The “Avg. Result” was identified in the results generated.
Experiments were conducted to identify compositions that inhibit P. gingivalis LPS-induced IL-8, TNFα, GM-CSF, IL-1β and IL-6 by HEK-TLR4 cells. HEK-TLR4 cells in 96 well plates were contacted with 100 μl samples. IL-8, TNFα, GM-CSF, IL-1β and IL-6 were detected as described above.

HEK-Blue hTLR4 cells [3] = assay: IL-8 dose response in HEK-Blue hTLR4 cells with P.g. LPS 1 μg/ml and 3X-24X dilutions of simple solutions (Example 4)
Procedure: as §3, §4
2) experiments using 3×, 6×, 12×, and 24× dilution fold of the simple solutions (see Table 6 below).
as §5, §6
In order to understand the role of Arginine in the inhibition of LPS induced inflammation, a dose response experiment was performed using ultrapure P.g. LPS, which only specifically targets TLR4 receptor, in order to maximize the activation of NF-kB and expression of IL-8.
The testing samples were prepared as the stock simple solutions. […] The first serial dilution was made 3 times with water, a dilution factor simulating dilution of toothpastes while brushing. Additional serial dilutions were made by 2-fold of the first dilution to study dose response effect.

[4] = 1 mM total zinc with standard P.g. LPS (0.1 μg/ml)
[5] = 10 mM total zinc with standard P.g. LPS (0.1 μg/ml)
[6] = 300 ppm with 0.1μ/ml P. gingivalis LPS
[7] = 600 ppm with 0.1μ/ml P. gingivalis LPS
[8] = P. gingivalis LPS, 300 and 600 ppm
[9] = 3X dilution of stock simple solution (Table 6) with P.g. LPS (1 μg/ml)
[10] = 6X dilution of stock simple solution (Table 6) with P.g. LPS (1 μg/ml)
[11] = 12X dilution of stock simple solution (Table 6) with P.g. LPS (1 μg/ml)
[12] = 24X dilution of stock simple solution (Table 6) with P.g. LPS (1 μg/ml)

Compound: [O]=[Zn] [ZnO, zinc oxide]
- IL-8 (average) (HEK-Blue hTLR4 cells [1]; 100 ppm with 1.0 μg/ml E. coli LPS): 317267829 pg/mL
- IL-8 (average) (HEK-Blue hTLR4 cells [1]; 100 ppm with 1.0 μg/ml P. gingivalis LPS): 210374063 pg/mL
- IL-8 (average) (HEK-Blue hTLR4 cells [1]; 100 ppm, without LPS): 610.1 pg/mL
- inhibitory effect on P. gingivalis LPS-induced IL-8 (in words) (HEK-Blue hTLR4 cells [1]; 500 ppm and 100 ppm): inhibitory effect
- IL-8 (average) (HEK-Blue hTLR4 cells [1]; 500 ppm with 1.0 μg/ml E. coli LPS): 564963251 pg/mL
- IL-8 (average) (HEK-Blue hTLR4 cells [1]; 500 ppm with 1.0 μg/ml P. gingivalis LPS): 275576697 pg/mL
- IL-8 (average) (HEK-Blue hTLR4 cells [1]; 500 ppm, without LPS): 448.6 pg/mL
- IL-8 Concentration, Average (HEK-Blue hTLR4 cells [2]; [4]): 39.5 pg/mL
- IL-8 Concentration, replicate (HEK-Blue hTLR4 cells [2]; [4]): 42.95 pg/mL and 30.75 pg/mL and 35.45 pg/mL and 48.85 pg/mL
- IL-8 Concentration, Average (HEK-Blue hTLR4 cells [2]; [5]): 18.9 pg/mL
- IL-8 Concentration, replicate (HEK-Blue hTLR4 cells [2]; [5]): 20.35 pg/mL and 27.65 pg/mL and 10.45 pg/mL and 16.95 pg/mL
- IL-8 induced by co-incubation with P.g. LPS (in words) (HEK-Blue hTLR4 cells [2]; at both 1 mM and 10 mM): reduced
- GM-CSF (raw data, single replicate) (HEK-TLR4 cells; [6]): 0.5501 pg/ml (2×) and 0.633 pg/ml and 1.577 pg/ml
- IL-1β (raw data, single replicate) (HEK-TLR4 cells; [6]): 6.491 pg/ml (2×) and 5.944 pg/ml and 6.674 pg/ml
- IL-6 (raw data, single replicate) (HEK-TLR4 cells; [6]): 3.316 pg/mL and 3.775 pg/mL and 3.171 pg/mL and 4.174 pg/mL
- IL-8 (average result) (HEK-TLR4 cells; [6]): 24200.24439257880 pg/mL
- IL-8 (raw data, single replicate) (HEK-TLR4 cells; [6]): 31890.081340469700 pg/mL and 39006.703793117100 pg/mL and 13910.330133842900 pg/mL and 11993.862302885500 pg/mL
- TNF-α (average result) (HEK-TLR4 cells; [6]): 42.3 pg/mL
- TNFα (raw data, single replicate) (HEK-TLR4 cells; [6]): 41.56 pg/mL and 39.8 pg/mL and 38.16 pg/mL and 49.7 pg/mL
- GM-CSF (raw data, single replicate) (HEK-TLR4 cells; 300 ppm, without LPS): <3.2 pg/ml (2×) and 0.3057 pg/ml and 0.5501 pg/ml
- IL-1β (raw data, single replicate) (HEK-TLR4 cells; 300 ppm, without LPS): 0.4614 pg/ml (2×) and 0.8647 pg/ml and 1.507 pg/ml
- IL-6 (raw data, single replicate) (HEK-TLR4 cells; 300 ppm, without LPS): 0.4605 pg/mL and 0.6587 pg/mL and 0.9797 pg/mL and 1.293 pg/mL
- IL-8 (average result) (HEK-TLR4 cells; 300 ppm, without LPS): 452.8 pg/mL
- IL-8 (raw data, single replicate) (HEK-TLR4 cells; 300 ppm, without LPS): 340.2 pg/mL and 393.1 pg/mL and 458.8 pg/mL and 619.1 pg/mL
- TNF-α (average result) (HEK-TLR4 cells; 300 ppm, without LPS): 1.202 pg/mL
- TNFα (raw data, single replicate) (HEK-TLR4 cells; 300 ppm, without LPS): 0.9029 pg/mL and 1.031 pg/mL and 1.244 pg/mL and 1.631 pg/mL
- GM-CSF (raw data, single replicate) (HEK-TLR4 cells; [7]): 1.142 pg/mL and 1.315 pg/mL and 0.3863 pg/mL and 0.3057 pg/mL
- IL-1β (raw data, single replicate) (HEK-TLR4 cells; [7]): 6.735 pg/mL and 6.309 pg/mL and 6.035 pg/mL and 5.701 pg/mL
- IL-6 (raw data, single replicate) (HEK-TLR4 cells; [7]): 2.617 pg/mL and 2.44 pg/mL and 1.782 pg/mL and 2.023 pg/mL
- IL-8 (average result) (HEK-TLR4 cells; [7]): 17453.90185032290 pg/mL
- IL-8 (raw data, single replicate) (HEK-TLR4 cells; [7]): 21030.114488079100 pg/mL and 14514.694724312700 pg/mL and 20392.976523123200 pg/mL and 13877.821665776500 pg/mL
- TNF-α (average result) (HEK-TLR4 cells; [7]): 26.47 pg/mL
- TNFα (raw data, single replicate) (HEK-TLR4 cells; [7]): 43.99 pg/mL and 24.75 pg/mL and 19.13 pg/mL and 18.02 pg/mL
- GM-CSF (raw data, single replicate) (HEK-TLR4 cells; 600 ppm, without LPS): 0.8854 pg/ml and 0.2263 pg/ml and 0.001671 pg/ml (2×)
- IL-1β (raw data, single replicate) (HEK-TLR4 cells; 600 ppm, without LPS): 2.871 pg/mL and 1.039 pg/mL and 0.4329 pg/mL and 0.4044 pg/mL
- IL-6 (raw data, single replicate) (HEK-TLR4 cells; 600 ppm, without LPS): 1.011 pg/ml and 0.3248 pg/ml and <3.2 pg/ml (2×)
- IL-8 (average result) (HEK-TLR4 cells; 600 ppm, without LPS): 558.8 pg/mL
- IL-8 (raw data, single replicate) (HEK-TLR4 cells; 600 ppm, without LPS): 993.3 pg/mL and 512.5 pg/mL and 355.4 pg/mL and 374 pg/mL
- TNF-α (average result) (HEK-TLR4 cells; 600 ppm, without LPS): 2.405 pg/mL
- TNFα (raw data, single replicate) (HEK-TLR4 cells; 600 ppm, without LPS): 3.729 pg/mL and 2.195 pg/mL and 1.804 pg/mL and 1.891 pg/mL
- effect on LPS-induced TNFα (in words) (HEK-TLR4 cells; [8]): reduced LPS-induced TNFα; also recorded: significantly reduced
- effect on induction of IL-8 by LPS (in words) (HEK-TLR4 cells; [8]): significantly reduced; also recorded: comparatively small effect
- IL-8 Concentration, Average (HEK-Blue hTLR4 cells [3]; [9]): 29.0 pg/mL
- IL-8 Concentration, replicate (HEK-Blue hTLR4 cells [3]; [9]): 32.6 pg/mL and 25.5 pg/mL
- IL-8 Concentration, Average (HEK-Blue hTLR4 cells [3]; [10]): 510.0 pg/mL
- IL-8 Concentration, replicate (HEK-Blue hTLR4 cells [3]; [10]): 646.1 pg/mL and 374.0 pg/mL
- IL-8 Concentration, Average (HEK-Blue hTLR4 cells [3]; [11]): 2658.0 pg/mL
- IL-8 Concentration, replicate (HEK-Blue hTLR4 cells [3]; [11]): 2699.5 pg/mL and 2616.4 pg/mL
- IL-8 Concentration, Average (HEK-Blue hTLR4 cells [3]; [12]): 3015.5 pg/mL
- IL-8 Concentration, replicate (HEK-Blue hTLR4 cells [3]; [12]): 3010.4 pg/mL and 3020.6 pg/mL
- inhibition of IL-8 (in words) (HEK-Blue hTLR4 cells [3]; when dilution folds increase): lose the inhibition of IL-8 gradually
